Literature values in patent publication US20070237820A1, “Pharmaceutical formulations containing a non-steroidal antinflammatory drug and an antiulcerative drug” (Andrx Pharmaceuticals, LLC, priority 2004, published 2007).

Columns and labels:
[1] = NSAIDs such as diclofenac
[2] = patients on chronic use

Compound	patients with side effects that require cessation of medication [1]	patients experiencing gross bleeding and ulceration [2]
O=C(O)Cc1ccccc1Nc1c(Cl)cccc1Cl [diclofenac]	about 20%	–
CN1C(C(=O)Nc2ccccn2)=C(O)c2ccccc2S1(=O)=O [piroxicam]	–	up to 4%
